Measured values published in PMC7300217, “Surfactin Like Broad Spectrum Antimicrobial Lipopeptide Co-produced With Sublancin From Bacillus subtilis Strain A52: Dual Reservoir of Bioactives” (Frontiers in Microbiology, 2020).
≈ marks a conversion by molar mass, not a printed value.

Columns and labels:
[1] = test system: C. inconsplicue MTCC 1074; test: MIC, microtiter plate dilution assay; format: cell-based; conditions: 5 × 10^5 CFU/ml, 37°C, OD600 after 48 h, triplicate
Procedure: (§1) The antimicrobial activity was tested by well diffusion assay as mentioned earlier ([Singh et al., 2014]). Strain A52 was grown for 24 h in 500 ml of nutrient broth (NB, Hi-media, India) using 1000 ml flask and subsequently cells were removed by centrifugation (10,000 rpm for 15 min at 4°C). Supernatant was filtered through 0.22 μm filter (Millipore, United States) to obtain cell-free fermented broth (CFB) that was used for antimicrobial assay (50 μl) against various indicator strains and the activity was measured as diameter of inhibition zone. Test strains used were Staphylococcus aureus (MTCC 1430), Bacillus subtilis (MTCC 121), B. firmus (MTCC 488), B. licheniformis (MTCC 429), B. thuringiensis (MTCC 1953), Escherichia coli (MTCC 1610), Micrococcus luteus (MTCC 106), Steptococcus pyrogens (MTCC 1928), S. anginosus (MTCC 1929), S. oralis (MTCC 2696), S. mutans (MTCC 497), Candida albicans (MTCC 1637), C. albicans (MTCC 183), C. albicans (MTCC 227), C. tropicalis (MTCC 184), C. glabrata (MTCC 3019), C. haemulonii (MTCC 2766), and C. inconsplicue (MTCC 1074). The phytopathogenic fungi employed in this study were Alternaria brassicicola (MTCC 2102), Colletotrichum acutatum (MTCC 1037), and Fusarium moniliforme (MTCC 158). Clinical isolates of Candida were provided by National Culture Collection of Pathogenic Fungi (NCCPF), PGIMER, Chandigarh, India.
(§2) The minimum inhibitory concentration (MIC) of HPLC purified peptides was evaluated by using microtiter plate dilution assay. The peptide concentration was estimated using BCA protein assay (Thermo Fisher Scientific, United States) method as described by manufacturer. Actively growing test strains (5 × 10^5 CFU/ml) were inoculated in a 96-well plate with different concentrations of the peptides and plates were incubated for 24–48 h at 37°C (final volume in each well is 200 μl). OD was measured at 600 nm after 24 and 48 h for bacteria and yeast, respectively, using ELISA microplate reader (Thermo, United States). MIC against phytopathogenic fungi was determined using 96-well microtiter plate assay ([Kaur et al., 2016]). In 96-well microplates, 100 μl of fungal spore suspension (1 × 10^5 spores/ml) prepared in potato dextrose broth (PDB, Hi-media, India) was mixed with100 μl of fresh PDB containing different concentrations of lipopeptide. Control well contained 100 μl of fungal spore suspension and 100 μl of only medium. The microplates were incubated at 25°C and readings were recorded at 600 nm after 48 h. The lowest concentration showing no growth was considered as MIC. Each test was done in triplicate and optical density (OD600) of peptide treated wells were compared with uninoculated wells (blank medium control).

[2] = test system: C. krusei 440009 (clinical isolate); test: MIC, microtiter plate dilution assay; format: cell-based; conditions: Pichia kudriavzevii, 5 × 10^5 CFU/ml, 37°C, OD600 after 48 h, triplicate
Procedure: as §1, §2

[3] = test system: C. parasilosis 450030 (clinical isolate); test: MIC, microtiter plate dilution assay; format: cell-based; conditions: 5 × 10^5 CFU/ml, 37°C, OD600 after 48 h, triplicate
Procedure: as §1, §2

[4] = test system: C. rugos 470141 (clinical isolate); test: MIC, microtiter plate dilution assay; format: cell-based; conditions: 5 × 10^5 CFU/ml, 37°C, OD600 after 48 h, triplicate
Procedure: as §1, §2

C. albicans MTCC 183 = test: MIC, microtiter plate dilution assay; format: cell-based, Candida albicans; conditions: Candida albicans, MTCC183; 5 × 10^5 CFU/ml, 37°C, OD600 after 48 h, triplicate
Procedure: as §1, §2

F. moniliforme MTCC 158 = test: MIC against phytopathogenic fungi, 96-well microtiter plate assay; format: cell-based, Fusarium moniliforme; conditions: Fusarium verticillioides, MTCC158; 1 × 10^5 spores/ml in PDB, 25°C, OD600 after 48 h, triplicate
Procedure: as §1
(§3) The minimum inhibitory concentration (MIC) of HPLC purified peptides was evaluated by using microtiter plate dilution assay. The peptide concentration was estimated using BCA protein assay (Thermo Fisher Scientific, United States) method as described by manufacturer. […] OD was measured at 600 nm after 24 and 48 h for bacteria and yeast, respectively, using ELISA microplate reader (Thermo, United States). MIC against phytopathogenic fungi was determined using 96-well microtiter plate assay ([Kaur et al., 2016]). […] The microplates were incubated at 25°C and readings were recorded at 600 nm after 48 h. […]

S. anginosus MTCC1929 = test: MIC, microtiter plate dilution assay; format: cell-based; conditions: Streptococcus anginosus, MTCC1929; 5 × 10^5 CFU/ml, 37°C, OD600 after 24 h, triplicate
Procedure: as §1, §2

S. mutans MTCC 497 = test: MIC, microtiter plate dilution assay; format: cell-based; conditions: Streptococcus mutans, MTCC497; 5 × 10^5 CFU/ml, 37°C, OD600 after 24 h, triplicate
Procedure: as §1, §2

S. oralis MTCC 2696 = test: MIC, microtiter plate dilution assay; format: cell-based; conditions: Streptococcus oralis, MTCC2696; 5 × 10^5 CFU/ml, 37°C, OD600 after 24 h, triplicate
Procedure: as §1, §2

S. pyogenes MTCC 1928 = test: MIC, microtiter plate dilution assay; format: cell-based; conditions: Streptococcus pyogenes, MTCC1928; 5 × 10^5 CFU/ml, 37°C, OD600 after 24 h, triplicate
Procedure: as §1, §2

S. aureus MTCC 1430 = test: MIC, microtiter plate dilution assay; format: cell-based, Staphylococcus aureus; conditions: Staphylococcus aureus, MTCC1430; 5 × 10^5 CFU/ml, 37°C, OD600 after 24 h, triplicate
Procedure: (§4) The antimicrobial activity was tested by well diffusion assay as mentioned earlier ([Singh et al., 2014]). Strain A52 was grown for 24 h in 500 ml of nutrient broth (NB, Hi-media, India) using 1000 ml flask and subsequently cells were removed by centrifugation (10,000 rpm for 15 min at 4°C). Supernatant was filtered through 0.22 μm filter (Millipore, United States) to obtain cell-free fermented broth (CFB) that was used for antimicrobial assay (50 μl) against various indicator strains and the activity was measured as diameter of inhibition zone. […]
as §3, with “assay.” for “assay. The peptide concentration was estimated using BCA protein assay (Thermo Fisher Scientific, United States) method as described by manufacturer.”

B. subtilis MTCC 121 = test: MIC, microtiter plate dilution assay; format: cell-based, Bacillus subtilis; conditions: Bacillus subtilis, MTCC121; 5 × 10^5 CFU/ml, 37°C, OD600 after 24 h, triplicate
Procedure: as §4
as §3, with “assay.” for “assay. The peptide concentration was estimated using BCA protein assay (Thermo Fisher Scientific, United States) method as described by manufacturer.”

B. cereus MTCC 430 = test: MIC, microtiter plate dilution assay; format: cell-based; conditions: Bacillus cereus, MTCC430; 5 × 10^5 CFU/ml, 37°C, OD600 after 24 h, triplicate
Procedure: as §2

B. coagulans MTCC 492 = test: MIC, microtiter plate dilution assay; format: cell-based; conditions: Heyndrickxia coagulans, MTCC492; 5 × 10^5 CFU/ml, 37°C, OD600 after 24 h, triplicate
Procedure: as §2

M. luteus MTCC 106 = test: MIC, microtiter plate dilution assay; format: cell-based, Micrococcus luteus; conditions: Micrococcus luteus, MTCC106; 5 × 10^5 CFU/ml, 37°C, OD600 after 24 h, triplicate
Procedure: as §4
as §3, with “assay.” for “assay. The peptide concentration was estimated using BCA protein assay (Thermo Fisher Scientific, United States) method as described by manufacturer.”

E. coli MTCC 1610 = test: MIC, microtiter plate dilution assay; format: cell-based, Escherichia coli; conditions: Escherichia coli, MTCC1610; 5 × 10^5 CFU/ml, 37°C, OD600 after 24 h, triplicate
Procedure: as §4
as §3, with “assay.” for “assay. The peptide concentration was estimated using BCA protein assay (Thermo Fisher Scientific, United States) method as described by manufacturer.”

MIC [1]	MIC [2]	MIC [3]	MIC [4]	MIC (C. albicans MTCC 183)	MIC (F. moniliforme MTCC 158)	MIC (S. anginosus MTCC1929)	MIC (S. mutans MTCC 497)	MIC (S. oralis MTCC 2696)	MIC (S. pyogenes MTCC 1928)	MIC (S. aureus MTCC 1430)	MIC (B. subtilis MTCC 121)	MIC (B. cereus MTCC 430)	MIC (B. coagulans MTCC 492)	MIC (M. luteus MTCC 106)	MIC (E. coli MTCC 1610)	Structure (SMILES)
50 µg/mL (≈ 163 µM)	1 µg/mL (≈ 3.27 µM)	10 µg/mL (≈ 32.7 µM)	5 µg/mL (≈ 16.3 µM)	20 µg/mL (≈ 65.3 µM)	10 µg/mL (≈ 32.7 µM)											OC(Cn1cncn1)(Cn1cncn1)c1ccc(F)cc1F [Fluconazole]
						0.25 µg/mL (≈ 0.715 µM)	0.4 µg/mL (≈ 1.14 µM)	0.4 µg/mL (≈ 1.14 µM)	0.03 µg/mL (≈ 0.0859 µM)	0.25 µg/mL (≈ 0.715 µM)	0.5 µg/mL (≈ 1.43 µM)	0.5 µg/mL (≈ 1.43 µM)	0.5 µg/mL (≈ 1.43 µM)	0.2 µg/mL (≈ 0.572 µM)	1 µg/mL (≈ 2.86 µM)	CC1(C)S[C@@H]2[C@H](NC(=O)[C@H](N)c3ccccc3)C(=O)N2[C@H]1C(=O)O [Ampicillin, reference compound]
